Reference: patent US20150141381A1, “TETRACYCLINE COMPOUNDS HAVING TARGET THERAPEUTIC ACTIVITIES” (Paratek Pharmaceuticals, Inc., priority 2001, published 2015)

Key:
S. aureus RN450 = test: In Vitro Anti-Bacterial Activity Assay (MIC), gram positive; assay type: cell-based; settings: Staphylococcus aureus, RN450, 18 h, gram positive bacteria; read-out: Antibiotic Activity Gram + (MIC)
E. coli mL308 225 = test: In Vitro Anti-Bacterial Activity Assay (MIC), gram negative; assay type: cell-based; settings: Escherichia coli, ML308225, 18 h, gram negative bacteria; read-out: Antibiotic Activity Gram − (MIC)

## CNCc1cc(CNCC(C)(C)C)c2c(c1O)C(=O)C1=C(O)[C@]3(O)C(=O)C(C(N)=O)=C(O)[C@@H](N(C)C)[C@@H]3C[C@@H]1C2
S. aureus RN450
  MIC: > 4 µg/mL
E. coli mL308 225
  MIC: > 4 µg/mL

## CN(C)[C@@H]1C(O)=C(C(N)=O)C(=O)[C@@]2(O)C(O)=C3C(=O)c4c(O)ccc(-c5cnccn5)c4C[C@H]3C[C@@H]12
S. aureus RN450
  MIC: < 4 µg/mL
E. coli mL308 225
  MIC: < 4 µg/mL

## COCC(=O)Nc1cccc(-c2ccc(O)c3c2C[C@H]2C[C@H]4[C@H](N(C)C)C(O)=C(C(N)=O)C(=O)[C@@]4(O)C(O)=C2C3=O)c1
S. aureus RN450
  MIC: < 4 µg/mL
E. coli mL308 225
  MIC: > 4 µg/mL

## Cc1ccc(-c2ccc(O)c3c2C[C@H]2C[C@H]4[C@H](N(C)C)C(O)=C(C(N)=O)C(=O)[C@@]4(O)C(O)=C2C3=O)nc1
S. aureus RN450
  MIC: < 4 µg/mL
E. coli mL308 225
  MIC: < 4 µg/mL

## CN(C)c1cc(CNc2ccccn2)c(O)c2c1C[C@H]1C[C@H]3[C@H](N(C)C)C(O)=C(C(N)=O)C(=O)[C@@]3(O)C(O)=C1C2=O
S. aureus RN450
  MIC: < 4 µg/mL
E. coli mL308 225
  MIC: > 4 µg/mL

## Cc1ccnc(-c2ccc(O)c3c2C[C@H]2C[C@H]4[C@H](N(C)C)C(O)=C(C(N)=O)C(=O)[C@@]4(O)C(O)=C2C3=O)c1
S. aureus RN450
  MIC: < 4 µg/mL
E. coli mL308 225
  MIC: < 4 µg/mL

## CN(C)[C@@H]1C(O)=C(C(N)=O)C(=O)[C@@]2(O)C(O)=C3C(=O)c4c(O)ccc(-c5cncc(Br)c5)c4C[C@H]3C[C@@H]12
S. aureus RN450
  MIC: < 4 µg/mL
E. coli mL308 225
  MIC: < 4 µg/mL

## CN(C)c1cc(NCc2cc[nH]n2)c(O)c2c1C[C@H]1C[C@H]3[C@H](N(C)C)C(O)=C(C(N)=O)C(=O)[C@@]3(O)C(O)=C1C2=O
S. aureus RN450
  MIC: > 4 µg/mL
E. coli mL308 225
  MIC: > 4 µg/mL

## CN(C)c1cc(NCc2ccc([N+](=O)[O-])cc2)c(O)c2c1C[C@H]1C[C@H]3[C@H](N(C)C)C(O)=C(C(N)=O)C(=O)[C@@]3(O)C(O)=C1C2=O
S. aureus RN450
  MIC: < 4 µg/mL
E. coli mL308 225
  MIC: > 4 µg/mL

## CCN(CC)Cc1cc(N(C)C)c2c(c1O)C(=O)C1=C(O)[C@]3(O)C(=O)C(C(N)=O)=C(O)[C@@H](N(C)C)[C@@H]3C[C@@H]1C2
S. aureus RN450
  MIC: < 4 µg/mL
E. coli mL308 225
  MIC: > 4 µg/mL

## CN(C)[C@@H]1C(OCc2ccccc2)=C(C(N)=O)C(=O)[C@@]2(O)C(O)=C3C(=O)c4c(O)cccc4C[C@H]3C[C@@H]12
S. aureus RN450
  MIC: > 4 µg/mL
E. coli mL308 225
  MIC: > 4 µg/mL

## CCCCOc1cccc2c1C(=O)C1=C(O)[C@]3(O)C(=O)C(C(N)=O)=C(O)[C@@H](N(C)C)[C@@H]3C[C@@H]1C2
S. aureus RN450
  MIC: > 4 µg/mL
E. coli mL308 225
  MIC: > 4 µg/mL

## CN(C)[C@@H]1C(OCc2ccccc2)=C(C(N)=O)C(=O)[C@@]2(O)C(O)=C3C(=O)c4c(O)ccc(I)c4C[C@H]3C[C@@H]12
S. aureus RN450
  MIC: < 4 µg/mL
E. coli mL308 225
  MIC: < 4 µg/mL

## COC(=O)C1CCN(CC(=O)Nc2ccc(-c3ccc(O)c4c3C[C@H]3C[C@H]5[C@H](N(C)C)C(O)=C(C(N)=O)C(=O)[C@@]5(O)C(O)=C3C4=O)cc2)CC1
S. aureus RN450
  MIC: < 4 µg/mL
E. coli mL308 225
  MIC: > 4 µg/mL

## CN(C)[C@@H]1C(O)=C(C(N)=O)C(=O)[C@@]2(O)C(O)=C3C(=O)c4c(O)ccc(-c5ccc(-n6cccc6)nc5)c4C[C@H]3C[C@@H]12
S. aureus RN450
  MIC: < 4 µg/mL
E. coli mL308 225
  MIC: < 4 µg/mL

## CN(C)[C@@H]1C(O)=C(C(N)=O)C(=O)[C@@]2(O)C(O)=C3C(=O)c4c(O)ccc(-c5ccc(O)nc5)c4C[C@H]3C[C@@H]12
S. aureus RN450
  MIC: < 4 µg/mL
E. coli mL308 225
  MIC: < 4 µg/mL

## CC(=O)Nc1ccc(-c2ccc(O)c3c2C[C@H]2C[C@H]4[C@H](N(C)C)C(O)=C(C(N)=O)C(=O)[C@@]4(O)C(O)=C2C3=O)cn1
S. aureus RN450
  MIC: < 4 µg/mL
E. coli mL308 225
  MIC: > 4 µg/mL

## CCCCOc1cccc2c1C(=O)C1=C(O)[C@]3(O)C(=O)C(C(N)=O)=C(O)[C@@H](N(C)C)[C@@H]3[C@@H](O)[C@@H]1[C@H]2C
S. aureus RN450
  MIC: > 4 µg/mL
E. coli mL308 225
  MIC: > 4 µg/mL

## CN(Cc1cc(N(C)C)c2c(c1O)C(=O)C1=C(O)[C@]3(O)C(=O)C(C(N)=O)=C(O)[C@@H](N(C)C)[C@@H]3C[C@@H]1C2)CC(C)(C)C
S. aureus RN450
  MIC: < 4 µg/mL
E. coli mL308 225
  MIC: < 4 µg/mL

## CC(CC(F)(F)F)N(C)Cc1cc(N(C)C)c2c(c1O)C(=O)C1=C(O)[C@]3(O)C(=O)C(C(N)=O)=C(O)[C@@H](N(C)C)[C@@H]3C[C@@H]1C2 (stereo partly drawn)
S. aureus RN450
  MIC: < 4 µg/mL
E. coli mL308 225
  MIC: < 4 µg/mL

## CN(C)[C@@H]1C(O)=C(C(N)=O)C(=O)[C@@]2(O)C(O)=C3C(=O)c4c(O)ccc(-c5ccncc5Cl)c4C[C@H]3C[C@@H]12
S. aureus RN450
  MIC: < 4 µg/mL
E. coli mL308 225
  MIC: < 4 µg/mL

## CN(C)c1cc(CC2=COc3ccccc3C2)c(O)c2c1C[C@H]1C[C@H]3[C@H](N(C)C)C(O)=C(C(N)=O)C(=O)[C@@]3(O)C(O)=C1C2=O
S. aureus RN450
  MIC: < 4 µg/mL
E. coli mL308 225
  MIC: > 4 µg/mL

## CN(C)c1cc(CNOC(C)(C)C)c(O)c2c1C[C@H]1C[C@H]3[C@H](N(C)C)C(O)=C(C(N)=O)C(=O)[C@@]3(O)C(O)=C1C2=O
S. aureus RN450
  MIC: < 4 µg/mL
E. coli mL308 225
  MIC: < 4 µg/mL

## COc1cccc(CNCc2cc(N(C)C)c3c(c2O)C(=O)C2=C(O)[C@]4(O)C(=O)C(C(N)=O)=C(O)[C@@H](N(C)C)[C@@H]4C[C@@H]2C3)c1
S. aureus RN450
  MIC: < 4 µg/mL
E. coli mL308 225
  MIC: > 4 µg/mL

## CN(C)Cc1cc(-c2ccoc2)c2c(c1O)C(=O)C1=C(O)[C@]3(O)C(=O)C(C(N)=O)=C(O)[C@@H](N(C)C)[C@@H]3C[C@@H]1C2
S. aureus RN450
  MIC: < 4 µg/mL
E. coli mL308 225
  MIC: > 4 µg/mL

## CN(C)c1cc(CNCc2ccccc2F)c(O)c2c1C[C@H]1C[C@H]3[C@H](N(C)C)C(O)=C(C(N)=O)C(=O)[C@@]3(O)C(O)=C1C2=O
S. aureus RN450
  MIC: < 4 µg/mL
E. coli mL308 225
  MIC: > 4 µg/mL

## CN(C)[C@@H]1C(O)=C(C(N)=O)C(=O)[C@@]2(O)C(O)=C3C(=O)c4c(O)ccc(-c5cncc(CO)c5)c4C[C@H]3C[C@@H]12
S. aureus RN450
  MIC: < 4 µg/mL
E. coli mL308 225
  MIC: > 4 µg/mL

## CN(C)[C@@H]1C(O)=C(C(N)=O)C(=O)[C@@]2(O)C(O)=C3C(=O)c4c(cccc4OCCCO)C[C@H]3C[C@@H]12
S. aureus RN450
  MIC: > 4 µg/mL
E. coli mL308 225
  MIC: > 4 µg/mL

## COCc1cncc(-c2ccc(O)c3c2C[C@H]2C[C@H]4[C@H](N(C)C)C(O)=C(C(N)=O)C(=O)[C@@]4(O)C(O)=C2C3=O)c1
S. aureus RN450
  MIC: < 4 µg/mL
E. coli mL308 225
  MIC: < 4 µg/mL

## CCCCOc1ccc(-c2ccc(N(C)C)cc2)c2c1C(=O)C1=C(O)[C@]3(O)C(=O)C(C(N)=O)=C(O)[C@@H](N(C)C)[C@@H]3C[C@@H]1C2
S. aureus RN450
  MIC: < 4 µg/mL
E. coli mL308 225
  MIC: > 4 µg/mL

## CN(C)c1cc(CNCc2ccc(C(=O)O)cc2)c(O)c2c1C[C@H]1C[C@H]3[C@H](N(C)C)C(O)=C(C(N)=O)C(=O)[C@@]3(O)C(O)=C1C2=O
S. aureus RN450
  MIC: > 4 µg/mL
E. coli mL308 225
  MIC: > 4 µg/mL

## COC(=O)O[C@@]12C(=O)C(C(N)=O)=C(O)[C@@H](N(C)C)[C@@H]1C[C@@H]1Cc3cccc(O)c3C(=O)C1=C2O
S. aureus RN450
  MIC: > 4 µg/mL
E. coli mL308 225
  MIC: > 4 µg/mL

## CN[C@@]12C(=O)C(C(N)=O)=C(O)[C@@H](N(C)C)[C@@H]1[C@@H](OC)[C@H]1C(=C2O)C(=O)c2c(O)cccc2[C@@H]1C
S. aureus RN450
  MIC: > 4 µg/mL
E. coli mL308 225
  MIC: > 4 µg/mL

## CN(C)c1cc(CO)c(O)c2c1C[C@H]1C[C@H]3[C@H](N(C)C)C(O)=C(C(N)=O)C(=O)[C@@]3(O)C(O)=C1C2=O
S. aureus RN450
  MIC: < 4 µg/mL
E. coli mL308 225
  MIC: > 4 µg/mL

## CCONC(C)c1ccc(O)c2c1C[C@H]1C[C@H]3[C@H](N(C)C)C(O)=C(C(N)=O)C(=O)[C@@]3(O)C(O)=C1C2=O (stereo partly drawn)
S. aureus RN450
  MIC: < 4 µg/mL
E. coli mL308 225
  MIC: < 4 µg/mL

## C/C(=N\OC(C)(C)C)c1ccc(O)c2c1C[C@H]1C[C@H]3[C@H](N(C)C)C(O)=C(C(N)=O)C(=O)[C@@]3(O)C(O)=C1C2=O
S. aureus RN450
  MIC: < 4 µg/mL
E. coli mL308 225
  MIC: < 4 µg/mL
